Experimental findings from PubChem BioAssay AID1963982 (Molecular Pharmacology Branch, DTP, NCI, 2024) are described below.

“And” between values parts separate entries of the source, which are not always exact repeats. Equal entries are not always repeated.

The subject of the assay is 313798-341-R-J2-PDC spheroids, viability. As to the kind of experiment: Anticancer human tumor 313798-341-R-J2-PDC patient-derived cervical squamous cell carcinoma cell line growth inhibition [PI3K]. Particulars: spheroids with HUVEC and MSC; for viability, T/C: stronger effect = lower value. The method in brief:
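We assembled tumor spheroids that included a stromal compartment of HUVEC and MSCs, then exposed them to targeted agents alone and together with PI3K pathway inhibitors. Concentration series descended by half-log from clinically achievable Cmax levels. Viability served as the endpoint.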
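Note: spheroids exposed to compounds for seven days.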
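Throughout, for viability, T/C: 100% = DMSO vehicle control viability.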

Regarding `CNC(=O)c1ccc(N2C(=S)N(c3ccc(C#N)c(C(F)(F)F)c3)C(=O)C2(C)C)cc1F`, the viability, T/C runs as follows: (compound 0.0316 µM) 104% and 102% (2×) and 89%; (compound 0.1 µM) 99.5% [middle of 4 runs]; (compound 0.316 µM) 104% [middle of 4 runs]; (compound 1 µM) 102% [middle of 4 runs]; (compound 3.16 µM) 105% [middle of 4 runs]; (compound 10 µM) 102% [middle of 4 runs]. Moreover, the IC50 (curve of compound) was over 10 µM.

Regarding `CCN1CCN(Cc2ccc(Nc3ncc(F)c(-c4cc(F)c5nc(C)n(C(C)C)c5c4)n3)nc2)CC1` + CC(Nc1ncnc2nc[nH]c12)c1cc2cccc(Cl)c2c(=O)n1-c1ccccc1, the IC50 was over 1 µM (curve of first compound, second compound 0.0316 µM); over 1 µM (curve of first compound, second compound 0.1 µM); over 1 µM (curve of first compound, second compound 0.316 µM); over 1 µM (curve of first compound, second compound 1 µM); over 1 µM (curve of first compound, second compound 3.16 µM); over 1 µM (curve of first compound, second compound 10 µM). Moreover, the viability, T/C is 98.9% (second compound 0.0316 µM, first compound 0.00316 µM); 98.3% (second compound 0.0316 µM, first compound 0.01 µM); 114% (second compound 0.0316 µM, first compound 0.0316 µM); 114% (second compound 0.0316 µM, first compound 0.1 µM); 96% (second compound 0.0316 µM, first compound 0.316 µM); 123% (second compound 0.0316 µM, first compound 1 µM). The viability, T/C was 105% (second compound 0.1 µM, first compound 0.00316 µM); 110% (second compound 0.1 µM, first compound 0.01 µM); 103% (second compound 0.1 µM, first compound 0.0316 µM); 113% (second compound 0.1 µM, first compound 0.1 µM); 102% (second compound 0.1 µM, first compound 0.316 µM); 115% (second compound 0.1 µM, first compound 1 µM). Also, the viability, T/C (second compound 0.316 µM, first compound 0.00316 µM) was 94.5%; the viability, T/C (second compound 0.316 µM, first compound 0.01 µM) is 100%; the viability, T/C (second compound 0.316 µM, first compound 0.0316 µM) was 92.3%; the viability, T/C (second compound 0.316 µM, first compound 0.1 µM) was 96.9%; the viability, T/C (second compound 0.316 µM, first compound 0.316 µM) is 104%; the viability, T/C (second compound 0.316 µM, first compound 1 µM) was 107%. In addition, the viability, T/C is, setting by setting: (second compound 1 µM, first compound 0.00316 µM) 104%; (second compound 1 µM, first compound 0.01 µM) 95.3%; (second compound 1 µM, first compound 0.0316 µM) 99.8%; (second compound 1 µM, first compound 0.1 µM) 101%; (second compound 1 µM, first compound 0.316 µM) 104%; (second compound 1 µM, first compound 1 µM) 109%. Besides, the viability, T/C by setting is: (second compound 3.16 µM, first compound 0.00316 µM) 103%; (second compound 3.16 µM, first compound 0.01 µM) 94.6%; (second compound 3.16 µM, first compound 0.0316 µM) 98.1%; (second compound 3.16 µM, first compound 0.1 µM) 99.8%; (second compound 3.16 µM, first compound 0.316 µM) 108%; (second compound 3.16 µM, first compound 1 µM) 89.8%. Besides, the viability, T/C (second compound 10 µM, first compound 0.00316 µM) is 100%; the viability, T/C (second compound 10 µM, first compound 0.01 µM) was 91.5%; the viability, T/C (second compound 10 µM, first compound 0.0316 µM) is 83.9%; the viability, T/C (second compound 10 µM, first compound 0.1 µM) is 85.8%; the viability, T/C (second compound 10 µM, first compound 0.316 µM) is 82.4%; the viability, T/C (second compound 10 µM, first compound 1 µM) is 89.5%.

Consider `CCN1CCN(Cc2ccc(Nc3ncc(F)c(-c4cc(F)c5nc(C)n(C(C)C)c5c4)n3)nc2)CC1`, for which the viability, T/C runs as follows: (compound 0.01 µM) 99.5% [middle of 4 runs]; (compound 0.0316 µM) 103% [middle of 4 runs]; (compound 0.1 µM) 102% [middle of 4 runs]; (compound 0.316 µM) 120% [middle of 4 runs]; (compound 1 µM) 122% [middle of 4 runs]. The IC50 (curve of compound) is over 1 µM.
